ChEMBL document CHEMBL4396868, “Discovery of Potent, Selective, and Brain-Penetrant 1 H-Pyrazol-5-yl-1 H-pyrrolo[2,3- b]pyridines as Anaplastic Lymphoma Kinase (ALK) Inhibitors” (J Med Chem, 2019)
Calls of active or inactive are those of the source. The calls are words filed in the database; no cut-off is given here.

Assays:
[1] = molecular target: Insulin receptor (Homo sapiens) (UniProt P06213); test: Inhibition of IRK (unknown origin) at 100 nM by [gamma-33P]ATP-based radiometric or Alphascreen assay relative to control
Sequence of Insulin receptor (Homo sapiens) (P06213 28-758 limits assumed): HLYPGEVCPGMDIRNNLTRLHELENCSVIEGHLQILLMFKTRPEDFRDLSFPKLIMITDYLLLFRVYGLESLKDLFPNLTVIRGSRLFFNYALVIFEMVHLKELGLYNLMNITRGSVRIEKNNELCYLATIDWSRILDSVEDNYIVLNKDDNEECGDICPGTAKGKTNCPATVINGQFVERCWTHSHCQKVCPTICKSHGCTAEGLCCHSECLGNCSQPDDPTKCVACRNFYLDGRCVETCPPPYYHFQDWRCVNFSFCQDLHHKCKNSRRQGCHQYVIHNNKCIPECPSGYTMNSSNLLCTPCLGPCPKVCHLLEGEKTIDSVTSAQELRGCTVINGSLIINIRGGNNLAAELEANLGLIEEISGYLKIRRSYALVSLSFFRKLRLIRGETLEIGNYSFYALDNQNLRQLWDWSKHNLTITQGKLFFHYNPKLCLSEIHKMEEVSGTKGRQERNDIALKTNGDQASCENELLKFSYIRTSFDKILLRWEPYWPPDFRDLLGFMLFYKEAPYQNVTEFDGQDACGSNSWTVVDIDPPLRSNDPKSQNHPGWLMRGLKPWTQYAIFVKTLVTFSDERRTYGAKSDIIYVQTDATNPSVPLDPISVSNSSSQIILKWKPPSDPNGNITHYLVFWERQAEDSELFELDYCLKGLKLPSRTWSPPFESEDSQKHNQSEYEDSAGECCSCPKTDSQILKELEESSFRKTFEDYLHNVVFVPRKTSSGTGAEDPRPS
Sequence of Insulin receptor (Homo sapiens) (P06213 763-1382 limits assumed): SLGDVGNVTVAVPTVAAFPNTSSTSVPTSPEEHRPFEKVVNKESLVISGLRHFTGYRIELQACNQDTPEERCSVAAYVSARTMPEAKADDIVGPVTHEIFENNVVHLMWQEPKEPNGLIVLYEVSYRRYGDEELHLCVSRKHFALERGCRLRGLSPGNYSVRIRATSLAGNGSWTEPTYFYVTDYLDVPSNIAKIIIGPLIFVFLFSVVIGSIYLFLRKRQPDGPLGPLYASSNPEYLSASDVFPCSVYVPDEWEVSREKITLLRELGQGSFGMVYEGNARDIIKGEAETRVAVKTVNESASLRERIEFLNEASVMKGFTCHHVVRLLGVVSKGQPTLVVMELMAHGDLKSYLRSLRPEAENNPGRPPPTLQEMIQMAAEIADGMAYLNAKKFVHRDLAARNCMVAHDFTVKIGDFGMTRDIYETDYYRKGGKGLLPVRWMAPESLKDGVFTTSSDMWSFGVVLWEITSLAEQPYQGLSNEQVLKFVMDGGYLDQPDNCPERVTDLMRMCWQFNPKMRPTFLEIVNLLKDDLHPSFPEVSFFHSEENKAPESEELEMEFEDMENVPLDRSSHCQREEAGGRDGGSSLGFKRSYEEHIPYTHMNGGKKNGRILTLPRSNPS

[2] = Fraction unbound in ICR mouse brain at 1 umol/L measured for 16 to 20 hrs by equilibrium dialysis based LC-MS/MS analysis; assay type: ADME, tissue-based; conditions: 1 µM
[3] = Unbound brain-to-plasma concentration ratio in Jcl-ICR mouse at 100 mg/kg, ip measured at 2 hrs by LC/MS/MS analysis; assay type: ADME, organism-based; conditions: read-out: K(p,uu,brain)
[4] = molecular target: Ephrin type-A receptor 5 (Homo sapiens) (UniProt P54756); test: Inhibition of EPHA5 (unknown origin) at 100 nM by [gamma-33P]ATP-based radiometric or Alphascreen assay relative to control
[5] = Drug level in Jcl-ICR mouse brain at 100 mg/kg, ip measured at 1 hr by LC/MS/MS analysis; assay type: ADME, organism-based; conditions: read-out: Drug uptake
Focal adhesion kinase 1 [6] = molecular target: T1, Focal adhesion kinase 1 (Homo sapiens, UniProt Q05397); test: Inhibition of full-length N-terminal FLAG-tagged FAK (unknown origin) expressed in baculovirus expression system at 100 nM preincubated for 5 mins followed by ATP addition and measured after 60 mins by alphascreen assay relative to control
[7] = molecular target: cAMP-dependent protein kinase catalytic subunit alpha (Homo sapiens) (UniProt P17612); test: Inhibition of PKA (unknown origin) expressed in Escherichia coli at 100 nM using PKA substrate peptide preincubated for 5 mins followed by [gamma-33P]ATP addition and measured after 10 mins by topcount scintillation counting method relative to control
[8] = Drug level in Jcl-ICR mouse plasma at 100 mg/kg, ip measured at 2 hr by LC/MS/MS analysis; assay type: ADME, organism-based
[9] = molecular target: Vascular endothelial growth factor receptor 2 (Homo sapiens) (UniProt P35968); test: Inhibition of N-terminal FLAG-tagged VEGFR2 (unknown origin) expressed in baculovirus expression system at 100 nM preincubated for 5 mins followed by ATP addition and measured after 10 mins by alphascreen assay relative to control
[10] = molecular target: Interleukin-1 receptor-associated kinase 4 (Homo sapiens) (UniProt Q9NWZ3); test: Inhibition of IRAK4 (unknown origin) at 100 nM by [gamma-33P]ATP-based radiometric or Alphascreen assay relative to control
[11] = molecular target: High affinity nerve growth factor receptor (Homo sapiens, UniProt P04629); test: Inhibition of N-terminal GST-tagged human TrkA kinase domain (436 to 790 residues) expressed in baculovirus expression system using biotin-poly-GT as substrate pre-incubated for 5 mins followed by ATP addition and measured after 60 mins by alpha screen assay
Sequence of High affinity nerve growth factor receptor (P04629 whole entry, the tested form may be a part): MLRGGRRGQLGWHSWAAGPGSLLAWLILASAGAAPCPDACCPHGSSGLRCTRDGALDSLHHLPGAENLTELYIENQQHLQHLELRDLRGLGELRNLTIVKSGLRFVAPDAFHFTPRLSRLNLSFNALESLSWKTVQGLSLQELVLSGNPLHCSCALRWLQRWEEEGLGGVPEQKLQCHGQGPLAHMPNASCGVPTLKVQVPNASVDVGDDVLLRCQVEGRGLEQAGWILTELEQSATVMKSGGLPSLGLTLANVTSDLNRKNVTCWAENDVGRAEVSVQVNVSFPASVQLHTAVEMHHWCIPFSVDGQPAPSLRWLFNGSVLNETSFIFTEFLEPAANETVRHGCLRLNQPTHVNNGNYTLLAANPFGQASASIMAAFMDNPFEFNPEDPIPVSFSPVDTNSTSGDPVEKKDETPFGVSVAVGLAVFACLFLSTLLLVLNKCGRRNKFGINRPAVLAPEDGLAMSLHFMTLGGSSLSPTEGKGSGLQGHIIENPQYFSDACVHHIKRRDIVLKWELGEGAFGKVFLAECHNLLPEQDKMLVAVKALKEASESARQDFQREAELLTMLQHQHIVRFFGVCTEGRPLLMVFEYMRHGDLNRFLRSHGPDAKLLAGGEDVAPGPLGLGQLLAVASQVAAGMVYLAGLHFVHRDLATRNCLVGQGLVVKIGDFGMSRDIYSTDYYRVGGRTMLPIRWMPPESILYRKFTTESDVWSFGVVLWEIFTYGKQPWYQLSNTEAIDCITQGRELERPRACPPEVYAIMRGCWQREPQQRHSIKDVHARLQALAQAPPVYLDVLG

[12] = Fraction unbound in ICR mouse plasma at 1 umol/L measured for 20 hrs by equilibrium dialysis based LC-MS/MS analysis; assay type: ADME, cell-free; conditions: 1 µM
[13] = Drug level in Jcl-ICR mouse plasma at 100 mg/kg, ip measured at 1 hr by LC/MS/MS analysis; assay type: ADME, organism-based
[14] = molecular target: Serine/threonine-protein kinase PLK1 (Homo sapiens) (UniProt P53350); test: Inhibition of N-terminal FLAG-tagged PLK1 (unknown origin) expressed in baculovirus expression system at 100 nM using alpha-casein as substrate preincubated for 5 mins followed by [gamma-33P]ATP addition and measured after 40 mins by topcount scintillation counting method relative to control
[15] = molecular target: Mitogen-activated protein kinase 3 (Homo sapiens) (UniProt P27361); test: (§1) Inhibition of N-terminal FLAG-tagged ERK1 (unknown origin) expressed in baculovirus expression system at 100 nM using myelin basic protein as substrate preincubated for 5 mins followed by [gamma-33P]ATP addition and measured after 60 mins by topcount scintillation counting method relative to control
[16] = molecular target: Serine/threonine-protein kinase Chk1 (Homo sapiens) (UniProt O14757); test: Inhibition of CHEK1 (unknown origin) at 100 nM by [gamma-33P]ATP-based radiometric or Alphascreen assay relative to control
[17] = Drug level in Jcl-ICR mouse plasma at 100 mg/kg, ip measured at 0.5 hrs by LC/MS/MS analysis; assay type: ADME, organism-based
[18] = molecular target: Rho-associated protein kinase 1 (Homo sapiens) (UniProt Q13464); test: Inhibition of ROCK1 (unknown origin) at 100 nM by [gamma-33P]ATP-based radiometric or Alphascreen assay relative to control
Sequence of Rho-associated protein kinase 1 (Homo sapiens) (Q13464 2-1354 limits assumed): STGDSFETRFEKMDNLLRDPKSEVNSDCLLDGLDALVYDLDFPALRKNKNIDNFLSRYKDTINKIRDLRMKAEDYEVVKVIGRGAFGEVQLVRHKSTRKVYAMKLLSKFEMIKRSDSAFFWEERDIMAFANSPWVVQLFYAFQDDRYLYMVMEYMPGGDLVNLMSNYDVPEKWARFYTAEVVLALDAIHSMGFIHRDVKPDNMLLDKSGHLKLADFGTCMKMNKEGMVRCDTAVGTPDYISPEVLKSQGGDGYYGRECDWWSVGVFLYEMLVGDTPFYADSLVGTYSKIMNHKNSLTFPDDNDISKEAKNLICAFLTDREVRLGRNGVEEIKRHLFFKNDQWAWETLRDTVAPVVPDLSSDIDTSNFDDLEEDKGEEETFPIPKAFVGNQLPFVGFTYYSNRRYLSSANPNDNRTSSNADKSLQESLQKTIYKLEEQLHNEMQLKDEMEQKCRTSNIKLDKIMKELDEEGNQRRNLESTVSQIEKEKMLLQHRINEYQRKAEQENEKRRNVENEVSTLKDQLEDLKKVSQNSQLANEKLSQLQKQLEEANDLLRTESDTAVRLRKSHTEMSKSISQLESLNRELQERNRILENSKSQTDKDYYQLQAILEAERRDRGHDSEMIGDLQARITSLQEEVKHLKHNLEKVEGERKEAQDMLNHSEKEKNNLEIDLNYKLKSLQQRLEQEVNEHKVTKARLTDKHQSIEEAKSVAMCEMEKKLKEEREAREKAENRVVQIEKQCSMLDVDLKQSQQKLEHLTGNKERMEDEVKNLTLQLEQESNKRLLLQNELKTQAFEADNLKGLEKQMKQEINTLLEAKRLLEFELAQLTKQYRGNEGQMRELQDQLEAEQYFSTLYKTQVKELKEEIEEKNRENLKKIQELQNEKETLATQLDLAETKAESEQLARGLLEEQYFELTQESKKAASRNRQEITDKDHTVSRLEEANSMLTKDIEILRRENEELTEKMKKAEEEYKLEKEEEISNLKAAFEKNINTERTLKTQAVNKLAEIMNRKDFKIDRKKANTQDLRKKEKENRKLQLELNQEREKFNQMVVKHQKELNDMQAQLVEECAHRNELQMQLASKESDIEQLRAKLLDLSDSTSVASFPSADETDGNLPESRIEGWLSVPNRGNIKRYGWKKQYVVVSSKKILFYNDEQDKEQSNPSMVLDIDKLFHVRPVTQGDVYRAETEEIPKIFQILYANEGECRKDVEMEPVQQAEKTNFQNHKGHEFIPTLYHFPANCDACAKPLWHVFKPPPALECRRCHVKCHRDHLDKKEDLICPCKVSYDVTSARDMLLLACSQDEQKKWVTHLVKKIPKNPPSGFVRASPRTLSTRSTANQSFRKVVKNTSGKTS

[19] = Brain to plasma partition coefficient, Kp of the compound in Jcl-ICR mouse at 100 mg/kg, ip measured at 0.5 hrs by LC/MS/MS analysis; assay type: ADME, organism-based
[20] = molecular target: Epidermal growth factor receptor (Homo sapiens) (UniProt P00533); test: Inhibition of human N-terminal DYKDDDD-tagged EGFR cytoplasmic domain (669 to 1210 residues) expressed in baculovirus expression system at 100 nM using poly-Glu-Tyr(4:1) as substrate preincubated for 5 mins followed by [gamma-33P]ATP addition and measured after 10 mins by topcount scintillation counting method relative to control
Homo sapiens = species: Homo sapiens; test: Selectivity ratio of IC50 for human FAK kinase domain (411 to 686 residues) expressed in baculovirus expression system to IC50 for human ALK kinase domain (1058 to 1620 residues) expressed in baculovirus expression system
Mus musculus [21] = test: In-vivo inhibition of ALK in ip dosed ICR mouse hippocampus assessed as reduction in phosphorylated ALK level after 1 hr by Western blot analysis; assay type: functional, organism-based
[22] = molecular target: Casein kinase I isoform delta (Homo sapiens) (UniProt P48730); test: Inhibition of CK1delta (unknown origin) at 100 nM by [gamma-33P]ATP-based radiometric or Alphascreen assay relative to control
[23] = molecular target: Tyrosine-protein kinase JAK1 (Homo sapiens) (UniProt P23458); test: Inhibition of JAK1 (unknown origin) at 100 nM by [gamma-33P]ATP-based radiometric or Alphascreen assay relative to control
[24] = Brain to plasma partition coefficient, Kp of the compound in Jcl-ICR mouse at 100 mg/kg, ip measured at 1 hr by LC/MS/MS analysis; assay type: ADME, organism-based
Focal adhesion kinase 1 [25] = molecular target: T1, Focal adhesion kinase 1; test: Inhibition of human FAK kinase domain (411 to 686 residues) expressed in baculovirus expression system using biotin-poly-GT as substrate pre-incubated for 10 mins followed by ATP addition and measured after 60 mins by HTRF method
[26] = molecular target: ALK tyrosine kinase receptor (Homo sapiens, UniProt Q9UM73)
Sequence of ALK tyrosine kinase receptor (Q9UM73 whole entry): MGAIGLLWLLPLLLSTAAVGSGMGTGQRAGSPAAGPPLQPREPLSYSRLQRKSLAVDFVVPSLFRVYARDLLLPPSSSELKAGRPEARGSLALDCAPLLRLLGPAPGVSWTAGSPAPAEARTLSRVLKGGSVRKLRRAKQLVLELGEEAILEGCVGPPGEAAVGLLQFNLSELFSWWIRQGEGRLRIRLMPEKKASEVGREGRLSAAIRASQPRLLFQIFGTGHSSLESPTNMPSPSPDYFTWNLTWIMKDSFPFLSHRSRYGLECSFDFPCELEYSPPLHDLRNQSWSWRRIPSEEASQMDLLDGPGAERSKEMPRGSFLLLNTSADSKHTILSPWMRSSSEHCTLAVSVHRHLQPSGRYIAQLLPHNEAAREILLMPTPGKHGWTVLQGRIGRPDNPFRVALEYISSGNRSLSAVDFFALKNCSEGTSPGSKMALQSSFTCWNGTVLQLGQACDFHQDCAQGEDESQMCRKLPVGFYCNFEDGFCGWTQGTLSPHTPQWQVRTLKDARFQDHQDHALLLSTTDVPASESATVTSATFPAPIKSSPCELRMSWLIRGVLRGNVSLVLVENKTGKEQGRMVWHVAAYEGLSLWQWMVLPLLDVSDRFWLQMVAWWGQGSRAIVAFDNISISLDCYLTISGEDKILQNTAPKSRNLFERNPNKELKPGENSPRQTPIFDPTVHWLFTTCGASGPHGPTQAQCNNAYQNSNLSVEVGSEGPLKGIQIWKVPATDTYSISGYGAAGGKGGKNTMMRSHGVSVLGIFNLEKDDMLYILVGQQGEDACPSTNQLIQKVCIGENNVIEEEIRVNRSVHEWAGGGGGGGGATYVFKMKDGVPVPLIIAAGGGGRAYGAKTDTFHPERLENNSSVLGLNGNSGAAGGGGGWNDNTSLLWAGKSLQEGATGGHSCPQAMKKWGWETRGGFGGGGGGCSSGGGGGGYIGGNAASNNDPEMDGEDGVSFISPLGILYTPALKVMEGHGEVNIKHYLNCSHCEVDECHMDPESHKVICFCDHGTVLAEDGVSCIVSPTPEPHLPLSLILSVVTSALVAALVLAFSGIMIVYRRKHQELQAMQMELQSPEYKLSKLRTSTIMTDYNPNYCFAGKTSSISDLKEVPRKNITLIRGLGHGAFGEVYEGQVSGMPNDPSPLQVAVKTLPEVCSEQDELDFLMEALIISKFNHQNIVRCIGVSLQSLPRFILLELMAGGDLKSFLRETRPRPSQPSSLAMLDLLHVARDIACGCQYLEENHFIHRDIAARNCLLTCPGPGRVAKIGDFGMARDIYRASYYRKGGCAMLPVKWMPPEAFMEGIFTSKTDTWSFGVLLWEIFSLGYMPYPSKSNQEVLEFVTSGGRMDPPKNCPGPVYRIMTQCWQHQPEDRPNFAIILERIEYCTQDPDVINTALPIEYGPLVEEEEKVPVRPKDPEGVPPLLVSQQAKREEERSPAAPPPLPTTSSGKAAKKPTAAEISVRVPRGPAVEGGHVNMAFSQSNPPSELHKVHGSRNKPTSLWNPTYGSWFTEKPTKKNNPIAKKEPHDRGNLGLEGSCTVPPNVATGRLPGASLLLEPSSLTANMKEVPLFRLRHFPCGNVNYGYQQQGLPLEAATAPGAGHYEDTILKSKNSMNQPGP
Description: Inhibition of human ALK kinase domain (1058 to 1620 residues) expressed in baculovirus expression system using biotin-poly-GT as substrate pre-incubated for 10 mins followed by ATP addition and measured after 60 mins by HTRF method

Mus musculus [27] = test: In-vivo inhibition of ALK in ICR mouse prefrontal cortex assessed as reduction in phosphorylated ALK level at 100 mg/kg, ip after 1 hr by Western blot analysis; assay type: functional, organism-based
[28] = Unbound brain-to-plasma concentration ratio in Jcl-ICR mouse at 100 mg/kg, ip measured at 0.5 hrs by LC/MS/MS analysis; assay type: ADME, organism-based; conditions: read-out: K(p,uu,brain)
[29] = molecular target: Mitogen-activated protein kinase 14 (Homo sapiens) (UniProt Q16539); test: as §1, with “p38alpha” for “ERK1”
[30] = Drug level in Jcl-ICR mouse brain at 100 mg/kg, ip measured at 2 hr by LC/MS/MS analysis; assay type: ADME, organism-based; conditions: read-out: Drug uptake

inhibition [1]: 2%
Fu [2]: 0.017%
Kp uu at 2 h [3]: 0.11
inhibition [4]: -2%
concentration at 1 h [5]: 33400 ng/mL
inhibition (Focal adhesion kinase 1 [6]): 83%
inhibition [7]: 12%
concentration at 2 h [8]: 11600 ng/mL
inhibition [9]: 2%
inhibition [10]: -7%
IC50 [11]: 2600 nM
Fu [12]: 0.08%
concentration at 1 h [13]: 26200 ng/mL
inhibition [14]: 5%
inhibition [15]: 3%
inhibition [16]: -9%
concentration at 0.5 h [17]: 26200 ng/mL
inhibition [18]: -5%
Kp at 0.5 h [19]: 1.26
inhibition [20]: -1%
Ratio IC50 (Homo sapiens): 10
inhibition [22]: 6%
inhibition [23]: -8%
Kp at 1 h [24]: 1.28
IC50 (Focal adhesion kinase 1 [25]): 25 nM
IC50 [26]: 2.9 nM
Kp uu at 0.5 h [28]: 0.27
inhibition [29]: -4%
concentration at 2 h [30]: 10300 ng/mL
SMILES: Cc1cc(-n2cc(C(=O)N3CCO[C@@H](C)C3)c3ccc(O[C@@H](C)c4ccc(F)cn4)nc32)n[nH]1
inhibition (Mus musculus [21]): Dose-dependent effect
inhibition (Mus musculus [27]): Active
